Where “and” joins values, the source holds several entries; their conditions need not be identical. Equal values may be shown once. Inconclusive results and toxic doses are left out. No stated cut-off is given here; in the data, active means T/C of 150% or more; inactive means T/C below 125%.
Test system: L1210 leukemia ip in BDF1 mice, survival T/C
Assay: NCI In Vivo Anticancer Drug Screen. Data for tumor model L1210 Leukemia (intraperitoneal) in B6D2F1 (BDF1) mice
Settings: endpoint: mean survival time, higher = longer survival
In short: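 Tumor was transplanted into mice, which were then dosed with test compound or vehicle alone. Survival was recorded for each group, and the treated figure was expressed relative to the control figure.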

[1] = dose: 100.0 mg/kg/injection, schedule: Q01DX001 (ip), vehicle: carboxymethylcellulose (CMC)
[2] = dose: 100.0 mg/kg/injection, schedule: Q01DX009 (ip), vehicle: saline with Tween-80
[3] = dose: 100.0 mg/kg/injection, schedule: Q04DX003 (ip), vehicle: saline with Tween-80
[4] = dose: 200.0 mg/kg/injection, schedule: Q01DX001 (ip), vehicle: carboxymethylcellulose (CMC)
[5] = dose: 200.0 mg/kg/injection, schedule: Q01DX009 (ip), vehicle: saline with Tween-80
[6] = dose: 200.0 mg/kg/injection, schedule: Q04DX003 (ip), vehicle: saline with Tween-80
[7] = dose: 100.0 mg/kg/injection, schedule: Q04DX003 (ip), vehicle: saline
[8] = dose: 200.0 mg/kg/injection, schedule: Q04DX003 (ip), vehicle: saline
[9] = dose: 400.0 mg/kg/injection, schedule: Q04DX003 (ip), vehicle: saline
[10] = dose: 100.0 mg/kg/injection, schedule: Q01DX009 (ip), vehicle: Klucel (hydroxypropylcellulose) (HPC)
[11] = dose: 200.0 mg/kg/injection, schedule: Q01DX009 (ip), vehicle: Klucel (hydroxypropylcellulose) (HPC)
[12] = dose: 400.0 mg/kg/injection, schedule: Q01DX009 (ip), vehicle: Klucel (hydroxypropylcellulose) (HPC)
[13] = dose: 400.0 mg/kg/injection, schedule: Q01DX009 (ip), vehicle: saline with Tween-80
[14] = dose: 400.0 mg/kg/injection, schedule: Q04DX003 (ip), vehicle: saline with Tween-80
[15] = dose: 100.0 mg/kg/injection, schedule: Q01DX001 (ip), vehicle: saline
[16] = dose: 100.0 mg/kg/injection, schedule: Q01DX009 (ip), vehicle: saline
[17] = dose: 200.0 mg/kg/injection, schedule: Q01DX001 (ip), vehicle: saline
[18] = dose: 200.0 mg/kg/injection, schedule: Q01DX009 (ip), vehicle: saline
[19] = dose: 400.0 mg/kg/injection, schedule: Q01DX001 (ip), vehicle: saline
[20] = dose: 400.0 mg/kg/injection, schedule: Q04DX002 (ip), vehicle: saline with Tween-80
[21] = dose: 100.0 mg/kg/injection, schedule: Q04DX003 (ip), vehicle: Klucel (hydroxypropylcellulose) (HPC)
[22] = dose: 200.0 mg/kg/injection, schedule: Q04DX003 (ip), vehicle: Klucel (hydroxypropylcellulose) (HPC)
[23] = dose: 400.0 mg/kg/injection, schedule: Q04DX003 (ip), vehicle: Klucel (hydroxypropylcellulose) (HPC)
[24] = dose: 50.0 mg/kg/injection, schedule: Q01DX009 (ip), vehicle: saline
[25] = dose: 50.0 mg/kg/injection, schedule: Q04DX003 (ip), vehicle: saline
[26] = dose: 25.0 mg/kg/injection, schedule: Q01DX009 (ip), vehicle: saline

Measured: T/C

Nc1ccc(Cl)c(Cl)c1
inactive: dose: 50.0 mg/kg/injection, schedule: Q01DX001 (ip), vehicle: carboxymethylcellulose (CMC) 98 % of control | dose: 50.0 mg/kg/injection, schedule: Q01DX009 (ip), vehicle: alcohol 101 % of control | dose: 50.0 mg/kg/injection, schedule: Q01DX009 (ip), vehicle: saline with Tween-80 92 % of control | dose: 50.0 mg/kg/injection, schedule: Q04DX003 (ip), vehicle: saline with Tween-80 104 % of control | [1] 93 % of control | dose: 100.0 mg/kg/injection, schedule: Q01DX009 (ip), vehicle: alcohol 109 % of control | [2] 94 % of control | dose: 100.0 mg/kg/injection, schedule: Q04DX003 (ip), vehicle: alcohol 114 % of control | [3] 104 % of control | [4] 95 % of control | dose: 200.0 mg/kg/injection, schedule: Q01DX009 (ip), vehicle: alcohol 90 % of control | [5] 95 % of control | dose: 200.0 mg/kg/injection, schedule: Q04DX003 (ip), vehicle: alcohol 97 % of control | [6] 104 % of control

Nc1ccc2cc(S(=O)(=O)O)ccc2c1
inactive: [7] 96 % of control | [8] 94 % of control | [9] 94 % of control

O=C(O)c1ccccc1C(=O)c1ccc(Cl)cc1
inactive: [10] 100 % of control | [11] 86 % of control | [12] 100 % of control

Cc1nc2[nH]c(=S)[nH]c(=O)c2nc1C
inactive: dose: 16.0 mg/kg/injection, schedule: Q01DX Z (ip), vehicle: methylcellulose (MC) 95 % of control | dose: 31.0 mg/kg/injection, schedule: Q01DX Z (ip), vehicle: methylcellulose (MC) 119 % of control | dose: 62.0 mg/kg/injection, schedule: Q01DX Z (ip), vehicle: methylcellulose (MC) 89 % of control | dose: 125.0 mg/kg/injection, schedule: Q01DX Z (ip), vehicle: methylcellulose (MC) 95 % of control and 101 % of control | dose: 250.0 mg/kg/injection, schedule: Q01DX Z (ip), vehicle: methylcellulose (MC) 112 % of control | dose: 500.0 mg/kg/injection, schedule: Q01DX Z (ip), vehicle: methylcellulose (MC) 89 % of control

OC1CSCSC1
inactive: [2] 98 % of control | [3] 98 % of control | [5] 94 % of control | [6] 98 % of control | [13] 94 % of control | [14] 98 % of control

CC(C(=O)NN)C(C)(C)O (stereo not drawn)
inactive: dose: 100.0 mg/kg/injection, schedule: Q04DX002 (ip), vehicle: Klucel (hydroxypropylcellulose) (HPC) 97 % of control | dose: 200.0 mg/kg/injection, schedule: Q04DX002 (ip), vehicle: Klucel (hydroxypropylcellulose) (HPC) 94 % of control | dose: 400.0 mg/kg/injection, schedule: Q04DX002 (ip), vehicle: Klucel (hydroxypropylcellulose) (HPC) 101 % of control

O/N=C(/Cc1ccccc1)CC(O)(C(F)(F)F)C(F)(F)F
inactive: [15] 110 % of control | [16] 95 % of control | [17] 95 % of control | [18] 102 % of control | [19] 89 % of control | dose: 400.0 mg/kg/injection, schedule: Q01DX009 (ip), vehicle: saline 95 % of control

N#CCCOCC[CH2][Sn]([c]1ccccc1)([c]1ccccc1)[c]1ccccc1
inactive: dose: 100.0 mg/kg/injection, schedule: Q04DX002 (ip), vehicle: saline with Tween-80 94 % of control | dose: 200.0 mg/kg/injection, schedule: Q04DX002 (ip), vehicle: saline with Tween-80 94 % of control | [20] 91 % of control

CCOC(=O)N1Cc2cc3cc(OC)ccc3nc2C1
inactive: dose: 50.0 mg/kg/injection, schedule: Q01DX009 (ip), vehicle: acetone 98 % of control | dose: 100.0 mg/kg/injection, schedule: Q01DX009 (ip), vehicle: acetone 95 % of control | [7] 94 % of control | dose: 200.0 mg/kg/injection, schedule: Q01DX009 (ip), vehicle: acetone 95 % of control | [8] 89 % of control | [9] 105 % of control

Nc1ccc(C(=O)Oc2ccccc2)c(O)c1
inactive: [21] 95 % of control | [22] 93 % of control | [23] 95 % of control

O=c1[nH]c2nc3ccccc3nc2c(=O)n1OS(=O)(=O)c1ccccc1
inactive: [10] 96 % of control | [11] 100 % of control | [12] 98 % of control

O=C(O)C1CCCCN1O (stereo not drawn)
inactive: [15] 102 % of control | [17] 104 % of control | [19] 104 % of control

CC(C)=CC(=O)Nc1cccc(O)c1
inactive: [2] 96 % of control | [5] 91 % of control | [13] 92 % of control

CN(C)C(=O)c1cc[n+](Cc2ccc(Cl)cc2)cc1
inactive: [7] 98 % of control

COc1cc2c(cc1OC)C(C(N)=O)NCC2 (stereo not drawn)
inactive: dose: 100.0 mg/kg/injection, schedule: Q01DX001 (ip), vehicle: other 101 % of control | dose: 200.0 mg/kg/injection, schedule: Q01DX001 (ip), vehicle: other 97 % of control | dose: 400.0 mg/kg/injection, schedule: Q01DX001 (ip), vehicle: other 93 % of control

CCCCCCCCCCCCCCCC[n+]1cccc(C(=O)NCO)c1
inactive: [1] 93 % of control | [4] 102 % of control

CC(=O)[C@H]1CC[C@H]2[C@@H]3C[C@H](C)C4=CC(=O)CC[C@]4(C)[C@H]3[C@@H](O)C[C@]12C
inactive: [24] 100 % of control | dose: 50.0 mg/kg/injection, schedule: Q01DX Z (sc), vehicle: steriod suspending solution 106 % of control | [25] 95 % of control | [15] 93 % of control | [16] 94 % of control | dose: 100.0 mg/kg/injection, schedule: Q01DX Z (sc), vehicle: steriod suspending solution 103 % of control | [7] 103 % of control | [17] 104 % of control | [18] 102 % of control | dose: 200.0 mg/kg/injection, schedule: Q01DX Z (sc), vehicle: steriod suspending solution 103 % of control | [8] 102 % of control | dose: 400.0 mg/kg/injection, schedule: Q01DX Z (sc), vehicle: steriod suspending solution 98 % of control

COCc1nnc2ncnc(OC)c2n1
inactive: [26] 106 % of control | dose: 25.0 mg/kg/injection, schedule: Q04DX003 (ip), vehicle: saline 100 % of control | [24] 93 % of control | [25] 102 % of control | [15] 98 % of control | [16] 88 % of control | [7] 98 % of control

Cc1ccc(OS(=O)(=O)c2ccc([N+](=O)[O-])cc2)cc1
inactive: [10] 97 % of control | [21] 97 % of control | [11] 96 % of control | [22] 101 % of control | [12] 95 % of control | [23] 100 % of control

O=S1(=O)C(Cl)(Cl)SC(Cl)(Cl)S(=O)(=O)C1(Cl)Cl
inactive: dose: 12.5 mg/kg/injection, schedule: Q01DX009 (ip), vehicle: saline 101 % of control | [26] 93 % of control | [24] 101 % of control | [25] 93 % of control | [15] 96 % of control | [17] 98 % of control

COc1ccc(C2CC(=O)OC(=O)C2)cc1
inactive: dose: 25.6 mg/kg/injection, schedule: Q04DX002 (ip), vehicle: saline with Tween-80 101 % of control | dose: 64.0 mg/kg/injection, schedule: Q04DX002 (ip), vehicle: saline with Tween-80 101 % of control | dose: 160.0 mg/kg/injection, schedule: Q04DX002 (ip), vehicle: saline with Tween-80 101 % of control | [6] 97 % of control | [20] 95 % of control | [14] 92 % of control

OC/C(=N/Nc1ccc2ccccc2n1)c1ccccc1
inactive: [2] 94 % of control | [3] 93 % of control | [5] 93 % of control | [6] 100 % of control | [13] 93 % of control | [14] 89 % of control

Cc1ccc(NCc2ccccc2)cc1
inactive: dose: 100.0 mg/kg/injection, schedule: Q04DX003 (ip), vehicle: other 112 % of control | dose: 200.0 mg/kg/injection, schedule: Q04DX003 (ip), vehicle: other 92 % of control
